Laboratory results from patent US11090364B2, “Conjugates of a pharmaceutical agent and a moiety capable of binding to a glucose sensing protein” (SANOFI, priority 2016, dated 2021).

System: HepG2 cells
Experiment: HepG2 assay: 14C 2-deoxy-D-glucose transport into HepG2 cells
Type: cell-based
Conditions: Homo sapiens, test compound 100 μM
Experimental: For measurement of ^14C 2-deoxy-D-glucose transport into HepG2 cells, cells were seeded in collagen treated 96-well plates (Cytostar-T Plates Perkin Elmer, 40.000 cells/200 μ/well) in medium complete (MEM W/GLUT-I, EARLES (Gibco #41090) /NEAA/PS/10% FCS) and grown for 48 hours. After starvation for 2 hours with MEM W/GLUT-I, EARLES (Gibco #41090)/NEAA/no serum 100 μl/well and washing twice with 200 μL KRB buffer, cells were stimulated in a dose dependent manner by adding 20 μL of test compound dilution 0-750 μM (7.5 times higher concentration than final) or 20 μL of 188 μM Cytochalasin B solution as negative control, to 80 μL KRB buffer and incubated for 30 minutes. After compound stimulation, the transport of ^14C 2-deoxy-D-glucose was started by adding of 50 μL ^14C 2-deoxy-D-glucose solution (250 μM 2-deoxy-D-glucose cold and 15 μM ^14C 2-deoxy-D-glucose 0.13 μCi/well) for 20 minutes. Transport was stopped by adding 50 μL/well 40 μM Cytochalasin B solution. Plates were measured in a 96-well Wallac Microbeta device. The cpm (counts per minute) values were used to determine the % inhibition values for the test compounds within each experiment, which then are averaged over the number of experiments performed.

Compound | inhibition at 100 µM [%]
CC(=O)O[C@@H]1O[C@H](C(=O)N2CCN(C)CC2)[C@@H](OC(C)=O)[C@H](OC(C)=O)[C@H]1OC(C)=O [Example 1, [(2S,3R,4S,5S,6S)-2,3,5-Triacetoxy-6-(4-methylpiperazine-1-carbonyl)tetrahydropyran-4-yl] acetate] | 6.32
CCN1CCN(C(=O)[C@H]2O[C@@H](OC(C)=O)[C@H](OC(C)=O)[C@@H](OC(C)=O)[C@@H]2OC(C)=O)CC1 [Example 2, [(2S,3R,4S,5S,6S)-2,3,5-Triacetoxy-6-(4-ethylpiperazine-1-carbonyl)tetrahydropyran-4-yl] acetate] | 6.5
CC(=O)O[C@@H]1O[C@H](C(=O)N2CCN(C(C)C)CC2)[C@@H](OC(C)=O)[C@H](OC(C)=O)[C@H]1OC(C)=O [Example 6, [(2S,3R,4S,5S,6S)-2,3,5-Triacetoxy-6-(4-isopropylpiperazine-1-carbonyl)tetrahydropyran-4-yl] acetate] | 7.75
CC(=O)O[C@@H]1O[C@H](C(=O)N2CCN(C(C)(C)C)CC2)[C@@H](OC(C)=O)[C@H](OC(C)=O)[C@H]1OC(C)=O [Example 7, [(2S,3R,4S,5S,6S)-2,3,5-Triacetoxy-6-(4-tert-butylpiperazine-1-carbonyl)tetrahydropyran-4-yl] acetate] | 6.99
C=CCN1CCN(C(=O)[C@H]2O[C@@H](OC(C)=O)[C@H](OC(C)=O)[C@@H](OC(C)=O)[C@@H]2OC(C)=O)CC1 [Example 8, [(2S,3R,4S,5S,6S)-2,3,5-Triacetoxy-6-(4-allylpiperazine-1-carbonyl)tetrahydropyran-4-yl] acetate] | 7.67
CC(=O)O[C@@H]1O[C@H](C(=O)N2CCN(C3CCCCC3)CC2)[C@@H](OC(C)=O)[C@H](OC(C)=O)[C@H]1OC(C)=O [Example 9, [(2S,3R,4S,5S,6S)-2,3,5-Triacetoxy-6-(4-cyclohexylpiperazine-1-carbonyl)tetrahydropyran-4-yl] acetate] | 5.11
CC(=O)O[C@@H]1O[C@H](C(=O)N2CCN(c3ccccc3)CC2)[C@@H](OC(C)=O)[C@H](OC(C)=O)[C@H]1OC(C)=O [Example 12, [(2S,3R,4S,5S,6S)-2,3,5-Triacetoxy-6-(4-phenylpiperazine-1-carbonyl)tetrahydropyran-4-yl] acetate] | 5.43
CC(=O)O[C@@H]1O[C@H](C(=O)N2CCN(c3ccc(Cl)cc3)CC2)[C@@H](OC(C)=O)[C@H](OC(C)=O)[C@H]1OC(C)=O [Example 14, [(2S,3R,4S,5S,6S)-2,3,5-Triacetoxy-6-[4-(4-chlorophenyl)piperazine-1-carbonyl]tetrahydropyran-4-yl] acetate] | 5.67
COc1ccccc1N1CCN(C(=O)[C@H]2O[C@@H](OC(C)=O)[C@H](OC(C)=O)[C@@H](OC(C)=O)[C@@H]2OC(C)=O)CC1 [Example 19, [(2S,3R,4S,5S,6S)-2,3,5-Triacetoxy-6-[4-(2-methoxyphenyl)piperazine-1-carbonyl]tetrahydropyran-4-yl] acetate] | 6.89
CN1CCN(C(=O)[C@H]2OC(O)[C@H](O)[C@@H](O)[C@@H]2O)CC1 (stereo partly drawn) [Example 21, (4-Methylpiperazin-1-yl)-[(2S,3S,4S,5R)-3,4,5,6-tetrahydroxytetrahydropyran-2-yl]methanone] | 7.53
CCN1CCN(C(=O)[C@H]2OC(O)[C@H](O)[C@@H](O)[C@@H]2O)CC1 (stereo partly drawn) [Example 22, (4-Ethylpiperazin-1-yl)-[(2S,3S,4S,5R)-3,4,5,6-tetrahydroxytetrahydropyran-2-yl]methanone] | 11.4
CC(C)(C)N1CCN(C(=O)[C@H]2OC(O)[C@H](O)[C@@H](O)[C@@H]2O)CC1 (stereo partly drawn) [Example 27, (4-tert-Butylpiperazin-1-yl)-[(2S,3S,4S,5R)-3,4,5,6-tetrahydroxytetrahydropyran-2-yl]methanone] | 13.1
C=CCN1CCN(C(=O)[C@H]2OC(O)[C@H](O)[C@@H](O)[C@@H]2O)CC1 (stereo partly drawn) [Example 28, (4-Allylpiperazin-1-yl)-[(2S,3S,4S,5R)-3,4,5,6-tetrahydroxytetrahydropyran-2-yl]methanone] | 9.95
O=C([C@H]1OC(O)[C@H](O)[C@@H](O)[C@@H]1O)N1CCN(C2CCCCC2)CC1 (stereo partly drawn) [Example 29, (4-Cyclohexylpiperazin-1-yl)-[(2S,3S,4S,5R)-3,4,5,6-tetrahydroxytetrahydropyran-2-yl]methanone] | 18.4
O=C([C@H]1OC(O)[C@H](O)[C@@H](O)[C@@H]1O)N1CCN(c2ccc(Cl)cc2)CC1 (stereo partly drawn) [Example 34, [4-(4-Chlorophenyl)piperazin-1-yl]-[(2S,3S,4S,5R)-3,4,5,6-tetrahydroxytetrahydropyran-2-yl]methanone] | 20.5
O=C([C@H]1OC(O)[C@H](O)[C@@H](O)[C@@H]1O)N1CCN(c2ccc(Br)cc2)CC1 (stereo partly drawn) [Example 36, [4-(4-Bromophenyl)piperazin-1-yl]-[(2S,3S,4S,5R)-3,4,5,6-tetrahydroxytetrahydropyran-2-yl]methanone] | 20.6
COc1ccc(N2CCN(C(=O)[C@H]3OC(O)[C@H](O)[C@@H](O)[C@@H]3O)CC2)cc1 (stereo partly drawn) [Example 37, [4-(4-Methoxyphenyl)piperazin-1-yl]-[(2S,3S,4S,5R)-3,4,5,6-tetrahydroxytetrahydropyran-2-yl]methanone] | 6.88
COc1cccc(N2CCN(C(=O)[C@H]3OC(O)[C@H](O)[C@@H](O)[C@@H]3O)CC2)c1 (stereo partly drawn) [Example 38, [4-(3-Methoxyphenyl)piperazin-1-yl]-[(2S,3S,4S,5R)-3,4,5,6-tetrahydroxytetrahydropyran-2-yl]methanone] | 12.7
COc1ccccc1N1CCN(C(=O)[C@H]2OC(O)[C@H](O)[C@@H](O)[C@@H]2O)CC1 (stereo partly drawn) [Example 39, [4-(2-Methoxyphenyl)piperazin-1-yl]-[(2S,3S,4S,5R)-3,4,5,6-tetrahydroxytetrahydropyran-2-yl]methanone] | 11
O=C([C@H]1OC(O)[C@H](O)[C@@H](O)[C@@H]1O)N1CCN(Cc2ccc3c(c2)OCO3)CC1 (stereo partly drawn) [Example 40, [4-(1,3-Benzodioxol-5-ylmethyl)piperazin-1-yl]-[(2S,3S,4S,5R)-3,4,5,6-tetrahydroxytetrahydropyran-2-yl]methanone] | 10.1
CC(=O)O[C@@H]1OC(CN2CCN(c3ccccc3)CC2)=C[C@H](OC(C)=O)[C@H]1OC(C)=O [Example 45, [(2S,3R,4S)-2,3-Diacetoxy-6-[(4-phenylpiperazin-1-yl)methyl]-3,4-dihydro-2H-pyran-4-yl] acetate] | 29.3
CC(=O)O[C@@H]1OC(CN2CCN(C/C=C/c3ccccc3)CC2)=C[C@H](OC(C)=O)[C@H]1OC(C)=O [Example 46, [(2S,3R,4S)-2,3-Diacetoxy-6-[[4-[(E)-cinnamyl]piperazin-1-yl]methyl]-3,4-dihydro-2H-pyran-4-yl] acetate] | 8.76
CC(=O)O[C@@H]1OC(CN2CCN(Cc3ccc4c(c3)OCO4)CC2)=C[C@H](OC(C)=O)[C@H]1OC(C)=O [Example 47, [(2S,3R,4S)-2,3-Diacetoxy-6-[[4-(1,3-benzodioxol-5-ylmethyl)piperazin-1-yl]methyl]-3,4-dihydro-2H-pyran-4-yl] acetate] | 13.8
CC(=O)O[C@@H]1OC(CN2CCN(c3ccc(Cl)cc3)CC2)=C[C@H](OC(C)=O)[C@H]1OC(C)=O [Example 48, [(2S,3R,4S)-2,3-Diacetoxy-6-[[4-(4-chlorophenyl)piperazin-1-yl]methyl]-3,4-dihydro-2H-pyran-4-yl] acetate] | 28.8
CC(=O)O[C@@H]1OC(CN2CCN(c3ccccc3Cl)CC2)=C[C@H](OC(C)=O)[C@H]1OC(C)=O [Example 49, [(2S,3R,4S)-2,3-Diacetoxy-6-[[4-(2-chlorophenyl)piperazin-1-yl]methyl]-3,4-dihydro-2H-pyran-4-yl] acetate] | 19.9
COc1ccc(N2CCN(CC3=C[C@H](OC(C)=O)[C@@H](OC(C)=O)[C@H](OC(C)=O)O3)CC2)cc1 [Example 50, [(2S,3R,4S)-2,3-Diacetoxy-6-[[4-(4-methoxyphenyl)piperazin-1-yl]methyl]-3,4-dihydro-2H-pyran-4-yl] acetate] | 13.8
COc1cccc(N2CCN(CC3=C[C@H](OC(C)=O)[C@@H](OC(C)=O)[C@H](OC(C)=O)O3)CC2)c1 [Example 51, [(2S,3R,4S)-2,3-Diacetoxy-6-[[4-(3-methoxyphenyl)piperazin-1-yl]methyl]-3,4-dihydro-2H-pyran-4-yl] acetate] | 17.9
COc1ccccc1N1CCN(CC2=C[C@H](OC(C)=O)[C@@H](OC(C)=O)[C@H](OC(C)=O)O2)CC1 [Example 52, [(2S,3R,4S)-2,3-Diacetoxy-6-[[4-(2-methoxyphenyl)piperazin-1-yl]methyl]-3,4-dihydro-2H-pyran-4-yl] acetate] | 14.6
CC(=O)O[C@@H]1OC(CN2CCN(c3ccc(Br)cc3)CC2)=C[C@H](OC(C)=O)[C@H]1OC(C)=O [Example 53, [(2S,3R,4S)-2,3-Diacetoxy-6-[[4-(4-bromophenyl)piperazin-1-yl]methyl]-3,4-dihydro-2H-pyran-4-yl] acetate] | 23.9
CN(C)c1cccc2c(S(=O)(=O)NCc3cn([C@H]4C(O)O[C@H](CO)[C@@H](O)[C@@H]4O)nn3)cccc12 (stereo partly drawn) [Example 54, 5-(Dimethylamino)-N-[[1-[(3R,4R,5S,6R)-2,4,5-trihydroxy-6-(hydroxymethyl)tetrahydropyran-3-yl]triazol-4-yl]methyl]naphthalene-1-sulfonamide] | 10.5
